In patent US20100267561A1, “HERBICIDAL PYRIDAZINONE DERIVATIVES” (priority 2007, published 2010):

Columns and labels:
Assay type in all cases: in vivo
[1] = tested on: ducksalad (Heteranthera limosa); experiment: Test D flooded paddy plant response; settings: Flood, scale 0 to 100 (0 no effect, 100 complete control), 21 days
Source text: (§1) Three plastic pots (ca. 16-cm diameter) for each application rate were partially filled with sterilized Tama silt loam soil comprising a 35:50:15 ratio of sand, silt and clay and 2.6% organic matter. Separate plantings for each of the three pots were as follows. Seeds from the U.S. of ducksalad (Heteranthera limosa), umbrella sedge (Cyperus difformis) and purple redstem (Ammannia coccinea), were planted into one 16-cm pot for each rate. Seeds from the U.S. of rice flatsedge (Cyperus iria), bearded (Brdd.) sprangletop (Leptochloa fascicularis), one stand of 9 or 10 water-seeded rice seedlings (Oryza sativa cv. ‘Japonica—M202’), and one stand of 6 transplanted rice seedlings (Oryza sativa cv. ‘Japonica—M202’) were planted into one 16-cm pot for each rate. Seeds from the U.S. of barnyardgrass (Echinochloa crus-galli), late watergrass (Echinochloa oryzicola), early watergrass (Echinochloa oryzoides) and junglerice (Echinochloa colona) were planted into one 16-cm pot for each rate. Plantings were sequential so that crop and weed species were at the 2.0 to 2.5-leaf stage at time of treatment.
(§2) Potted plants were grown in a greenhouse with day/night temperature settings of 30/27° C., and supplemental balanced lighting was provided to maintain a 16-hour photoperiod. Test pots were maintained in the greenhouse until test completion.
(§3) At time of treatment, test pots were flooded to 3 cm above the soil surface, treated by application of test compounds directly to the paddy water, and then maintained at that water depth for the duration of the test. Effects of treatments on rice and weeds were visually evaluated by comparison to untreated controls after 21 days. Plant response ratings, summarized in Table D, are based on a scale of 0 to 100 where 0 is no effect and 100 is complete control. A dash (-) response means no test result.

[2] = tested on: umbrella sedge (Cyperus difformis); experiment: Test D flooded paddy plant response; settings: Flood, scale 0 to 100 (0 no effect, 100 complete control), 21 days
Source text: as §1, §2, §3

[3] = tested on: bearded (Brdd.) sprangletop (Leptochloa fascicularis); experiment: Test D flooded paddy plant response; settings: Flood, scale 0 to 100 (0 no effect, 100 complete control), 21 days
Source text: as §1, §2, §3

[4] = tested on: early watergrass (Echinochloa oryzoides); experiment: Test D flooded paddy plant response; settings: Flood, scale 0 to 100 (0 no effect, 100 complete control), 21 days
Source text: as §1, §2, §3

[5] = tested on: late watergrass (Echinochloa oryzicola); experiment: Test D flooded paddy plant response; settings: Flood, scale 0 to 100 (0 no effect, 100 complete control), 21 days
Source text: as §1, §2, §3

[6] = tested on: junglerice (Echinochloa colona); experiment: Test D flooded paddy plant response; settings: Flood, scale 0 to 100 (0 no effect, 100 complete control), 21 days
Source text: as §1, §2, §3

[7] = tested on: water-seeded rice seedlings (Oryza sativa cv. ‘Japonica—M202’); experiment: Test D flooded paddy plant response; settings: Flood, scale 0 to 100 (0 no effect, 100 complete control), 21 days
Source text: as §1, §2, §3

[8] = tested on: rice flatsedge (Cyperus iria); experiment: Test D flooded paddy plant response; settings: Flood, scale 0 to 100 (0 no effect, 100 complete control), 21 days
Source text: as §1, §2, §3

[9] = tested on: barnyardgrass (Echinochloa crus-galli); experiment: Test D flooded paddy plant response; settings: Flood, scale 0 to 100 (0 no effect, 100 complete control), 21 days
Source text: as §1, §2, §3

[10] = tested on: transplanted rice seedlings (Oryza sativa cv. ‘Japonica—M202’); experiment: Test D flooded paddy plant response; settings: Flood, scale 0 to 100 (0 no effect, 100 complete control), 21 days
Source text: as §1, §2, §3

[11] = tested on: purple redstem (Ammannia coccinea); experiment: Test D flooded paddy plant response; settings: Flood, scale 0 to 100 (0 no effect, 100 complete control), 21 days
Source text: as §1, §2, §3

[12] = tested on: prickly sida (Sida spinosa); experiment: Test E pre-/postemergence plant response; settings: scale 0 to 100
In short: (§4)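 Plant response was judged by eye relative to controls, 0 meaning no effect and 100 complete control, after 14 to 21 days under greenhouse conditions. Compound was formulated in a non-phytotoxic solvent mixture with surfactant.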

kochia (Kochia scoparia) = experiment: Test E pre-/postemergence plant response; settings: Preemergence, scale 0 to 100
In short: as §4

CCCc1cc(-c2ccc(Cl)cc2)nn1-c1c(O)cnn(C)c1=O [Compound 43]
Plant response rating, Ducksalad ([1]; 16 g ai/ha): 0
Plant response rating, Ducksalad ([1]; 32 g ai/ha): 0
Plant response rating, Ducksalad ([1]; 64 g ai/ha): 0
Plant response rating, Ducksalad ([1]; 125 g ai/ha): 0
Plant response rating, Ducksalad ([1]; 250 g ai/ha): 0
Plant response rating, Sedge, Umbrella ([2]; 16 g ai/ha): 0
Plant response rating, Sedge, Umbrella ([2]; 32 g ai/ha): 0
Plant response rating, Sedge, Umbrella ([2]; 64 g ai/ha): 0
Plant response rating, Sedge, Umbrella ([2]; 125 g ai/ha): 0
Plant response rating, Sedge, Umbrella ([2]; 250 g ai/ha): 0
Plant response rating, Sprangletop, Brdd. ([3]; 16 g ai/ha): 0
Plant response rating, Sprangletop, Brdd. ([3]; 32 g ai/ha): 0
Plant response rating, Sprangletop, Brdd. ([3]; 64 g ai/ha): 0
Plant response rating, Sprangletop, Brdd. ([3]; 125 g ai/ha): 0
Plant response rating, Sprangletop, Brdd. ([3]; 250 g ai/ha): 20
Plant response rating, Watergrass, Early ([4]; 16 g ai/ha): 0
Plant response rating, Watergrass, Early ([4]; 32 g ai/ha): 0
Plant response rating, Watergrass, Early ([4]; 64 g ai/ha): 60
Plant response rating, Watergrass, Early ([4]; 125 g ai/ha): 70
Plant response rating, Watergrass, Early ([4]; 250 g ai/ha): 100
Plant response rating, Watergrass, Late ([5]; 16 g ai/ha): 0
Plant response rating, Watergrass, Late ([5]; 32 g ai/ha): 0
Plant response rating, Watergrass, Late ([5]; 64 g ai/ha): 30
Plant response rating, Watergrass, Late ([5]; 125 g ai/ha): 65
Plant response rating, Watergrass, Late ([5]; 250 g ai/ha): 100
Plant response rating, Junglerice ([6]; 16 g ai/ha): 0
Plant response rating, Junglerice ([6]; 32 g ai/ha): 0
Plant response rating, Junglerice ([6]; 64 g ai/ha): 60
Plant response rating, Junglerice ([6]; 125 g ai/ha): 100
Plant response rating, Junglerice ([6]; 250 g ai/ha): 100
Plant response rating, Rice, Water Seeded ([7]; 16 g ai/ha): 0
Plant response rating, Rice, Water Seeded ([7]; 32 g ai/ha): 0
Plant response rating, Rice, Water Seeded ([7]; 64 g ai/ha): 0
Plant response rating, Rice, Water Seeded ([7]; 125 g ai/ha): 30
Plant response rating, Rice, Water Seeded ([7]; 250 g ai/ha): 35
Plant response rating, Flatsedge, Rice ([8]; 16 g ai/ha): 0
Plant response rating, Flatsedge, Rice ([8]; 32 g ai/ha): 0
Plant response rating, Flatsedge, Rice ([8]; 64 g ai/ha): 0
Plant response rating, Flatsedge, Rice ([8]; 125 g ai/ha): 0
Plant response rating, Flatsedge, Rice ([8]; 250 g ai/ha): 0
Plant response rating, Barnyardgrass ([9]; 16 g ai/ha): 0
Plant response rating, Barnyardgrass ([9]; 32 g ai/ha): 20
Plant response rating, Barnyardgrass ([9]; 64 g ai/ha): 60
Plant response rating, Barnyardgrass ([9]; 125 g ai/ha): 100
Plant response rating, Barnyardgrass ([9]; 250 g ai/ha): 100
Plant response rating, Rice, Transplanted ([10]; 16 g ai/ha): 0
Plant response rating, Rice, Transplanted ([10]; 32 g ai/ha): 0
Plant response rating, Rice, Transplanted ([10]; 64 g ai/ha): 0
Plant response rating, Rice, Transplanted ([10]; 125 g ai/ha): 10
Plant response rating, Rice, Transplanted ([10]; 250 g ai/ha): 35
Plant response rating, Redstem, Purple ([11]; 16 g ai/ha): 0
Plant response rating, Redstem, Purple ([11]; 32 g ai/ha): 0
Plant response rating, Redstem, Purple ([11]; 64 g ai/ha): 0
Plant response rating, Redstem, Purple ([11]; 125 g ai/ha): 0
Plant response rating, Redstem, Purple ([11]; 250 g ai/ha): 0
Plant response rating, Prickly Sida ([12]; 16 g ai/ha, Preemergence): 0
Plant response rating, Prickly Sida ([12]; 31 g ai/ha, Preemergence): 0
Plant response rating, Prickly Sida ([12]; 62 g ai/ha, Preemergence): 0
Plant response rating, Prickly Sida ([12]; Postemergence, 8 g ai/ha): 0
Plant response rating, Prickly Sida ([12]; Postemergence, 16 g ai/ha): 0
Plant response rating, Prickly Sida ([12]; Postemergence, 31 g ai/ha): 0
Plant response rating, Prickly Sida ([12]; Postemergence, 62 g ai/ha): 0
Plant response rating, Kochia (kochia (Kochia scoparia); 16 g ai/ha): 0
Plant response rating, Kochia (kochia (Kochia scoparia); 31 g ai/ha): 0
Plant response rating, Kochia (kochia (Kochia scoparia); 62 g ai/ha): 0

CCOC(=O)Oc1cnn(C)c(=O)c1-n1nc(-c2ccc(Cl)cc2)cc1C [Compound 53]
Plant response rating, Prickly Sida ([12]; 16 g ai/ha, Preemergence): 0
Plant response rating, Prickly Sida ([12]; 31 g ai/ha, Preemergence): 0
Plant response rating, Prickly Sida ([12]; 62 g ai/ha, Preemergence): 0
Plant response rating, Prickly Sida ([12]; Postemergence, 8 g ai/ha): 0
Plant response rating, Prickly Sida ([12]; Postemergence, 16 g ai/ha): 0
Plant response rating, Prickly Sida ([12]; Postemergence, 31 g ai/ha): 0
Plant response rating, Prickly Sida ([12]; Postemergence, 62 g ai/ha): 0
Plant response rating, Kochia (kochia (Kochia scoparia); 16 g ai/ha): 0
Plant response rating, Kochia (kochia (Kochia scoparia); 31 g ai/ha): 0

Cc1cc(-c2ccc(Cl)cc2)nn1-c1c(OC(=O)Oc2ccccc2)cnn(C)c1=O [Compound 54]
Plant response rating, Prickly Sida ([12]; 8 g ai/ha, Postemergence): 0
Plant response rating, Prickly Sida ([12]; Postemergence, 16 g ai/ha): 0
Plant response rating, Prickly Sida ([12]; Postemergence, 31 g ai/ha): 0
Plant response rating, Prickly Sida ([12]; Postemergence, 62 g ai/ha): 0
